What follows are molecules tested against Platelet-derived growth factor receptor (Homo sapiens, UniProt P09619+P16234) (assay: Inhibition of the platelet-derived growth factor receptor.).

SMILES	IC50 [µM]
c1ccc(Nc2nccc(-c3cccnc3)n2)cc1	> 10
O=C(Nc1cccc(Nc2nccc(-c3cccnc3)n2)c1)C1CCCCC1	0.8
c1cc(Nc2nccc(-c3cccnc3)n2)cc(OCCn2ccnc2)c1	> 10
N#Cc1ccc(C(=O)Nc2cccc(Nc3nccc(-c4cccnc4)n3)c2)cc1	1.5
O=[N+]([O-])c1cccc(Nc2nccc(-c3ccccn3)n2)c1	> 100

The next lines start with the values.

IC50 [µM]	SMILES
> 100	Nc1cccc(Nc2nccc(-c3cccnc3)n2)c1
> 10	O=C(O)c1cccc(Nc2nccc(-c3cccnc3)n2)c1
> 10	FC(F)C(F)(F)Oc1cccc(Nc2nccc(-c3ccc(Cl)cc3)n2)c1
0.8	Cc1ccc(C(=O)Nc2cccc(Nc3nccc(-c4cccnc4)n3)c2)cc1
> 10	NCCCNC(=O)c1cccc(Nc2nccc(-c3cccnc3)n2)c1

The molecules below were run against Protein kinase C delta type (Homo sapiens, UniProt Q05655) (assay: Inhibition of protein kinase C delta.).
Protein kinase C delta type, sequence (Q05655 whole entry): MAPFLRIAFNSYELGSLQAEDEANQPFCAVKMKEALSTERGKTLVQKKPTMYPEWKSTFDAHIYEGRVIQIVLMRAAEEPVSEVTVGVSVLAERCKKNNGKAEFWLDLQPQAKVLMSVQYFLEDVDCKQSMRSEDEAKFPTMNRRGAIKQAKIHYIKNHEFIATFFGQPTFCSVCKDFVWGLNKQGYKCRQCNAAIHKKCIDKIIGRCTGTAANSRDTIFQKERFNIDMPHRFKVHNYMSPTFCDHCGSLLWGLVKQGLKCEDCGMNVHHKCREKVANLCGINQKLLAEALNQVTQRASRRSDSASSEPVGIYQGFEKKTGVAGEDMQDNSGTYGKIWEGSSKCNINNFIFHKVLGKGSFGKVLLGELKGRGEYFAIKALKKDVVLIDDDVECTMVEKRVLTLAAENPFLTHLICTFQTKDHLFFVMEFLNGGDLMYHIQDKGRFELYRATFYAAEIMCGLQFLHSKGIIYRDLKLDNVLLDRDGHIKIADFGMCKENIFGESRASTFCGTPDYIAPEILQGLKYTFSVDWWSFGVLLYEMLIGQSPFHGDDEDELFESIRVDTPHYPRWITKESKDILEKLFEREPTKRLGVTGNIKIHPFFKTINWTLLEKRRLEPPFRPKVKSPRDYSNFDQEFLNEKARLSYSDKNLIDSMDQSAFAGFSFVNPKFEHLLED

SMILES	IC50 [µM]
Cc1ccc(NC(=O)c2ccc(Cl)cc2)cc1Nc1nccc(-c2cccnc2)n1	> 100
c1ccc(Nc2nccc(-c3cccnc3)n2)cc1	39
c1cc(Nc2nccc(-c3cccnc3)n2)cc(OCCn2ccnc2)c1	34
N#Cc1ccc(C(=O)Nc2cccc(Nc3nccc(-c4cccnc4)n3)c2)cc1	> 500
O=[N+]([O-])c1cccc(Nc2nccc(-c3ccccn3)n2)c1	> 500

Further lines, results first:

IC50 [µM]	SMILES
> 100	COc1ccccc1C(=O)Nc1ccc(C)c(Nc2nccc(-c3cccnc3)n2)c1
> 500	Nc1cccc(Nc2nccc(-c3cccnc3)n2)c1
> 100	O=C(O)c1cccc(Nc2nccc(-c3cccnc3)n2)c1
> 100	FC(F)C(F)(F)Oc1cccc(Nc2nccc(-c3ccc(Cl)cc3)n2)c1

These molecules were tested against Protein kinase C alpha type (Homo sapiens, UniProt P17252) (assay: Inhibition of protein kinase C alpha.).

SMILES	IC50 [µM]
CC(=O)Nc1ccc(C)c(Nc2nccc(-c3cccnc3)n2)c1	500
c1ccc(Nc2nccc(-c3cccnc3)n2)cc1	10.5
c1cc(Nc2nccc(-c3cccnc3)n2)cc(OCCn2ccnc2)c1	1.5
N#Cc1ccc(C(=O)Nc2cccc(Nc3nccc(-c4cccnc4)n3)c2)cc1	0.35
O=[N+]([O-])c1cccc(Nc2nccc(-c3ccccn3)n2)c1	2.5

Results, then the molecule that gave them:

IC50 [µM]	SMILES
240	Cc1ccc(N)cc1Nc1nccc(-c2cccnc2)n1
80	COc1ccccc1C(=O)Nc1ccc(C)c(Nc2nccc(-c3cccnc3)n2)c1
210	Nc1cccc(Nc2nccc(-c3cccnc3)n2)c1
45	O=C(O)c1cccc(Nc2nccc(-c3cccnc3)n2)c1
0.85	FC(F)C(F)(F)Oc1cccc(Nc2nccc(-c3ccc(Cl)cc3)n2)c1

These molecules were tested against cAMP-dependent protein kinase (PKA) (Homo sapiens, UniProt P22694+P17612+P22612) (assay: Inhibition of protein kinase A.).
Format: protein assay, unidentified

SMILES	IC50 [µM]
Cc1ccc(NC(=O)c2ccc3ccccc3c2)cc1Nc1nccc(-c2cccnc2)n1	> 100
Cc1ccc(C(=O)Nc2ccc(C)c(Nc3nccc(-c4cccnc4)n3)c2)cc1	> 100
Cc1ccc(NC(=O)c2ccccc2)cc1Nc1nccc(-c2cccnc2)n1	> 500
Cc1ccc(NC(=O)c2ccc(Cl)cc2)cc1Nc1nccc(-c2cccnc2)n1	> 100
O=C(Nc1cccc(Nc2nccc(-c3cccnc3)n2)c1)c1ccccc1	> 500
CC(=O)Nc1ccc(C)c(Nc2nccc(-c3cccnc3)n2)c1	> 500
c1ccc(Nc2nccc(-c3cccnc3)n2)cc1	> 500
O=C(Nc1cccc(Nc2nccc(-c3cccnc3)n2)c1)C1CCCCC1	> 500
c1cc(Nc2nccc(-c3cccnc3)n2)cc(OCCn2ccnc2)c1	340
N#Cc1ccc(C(=O)Nc2cccc(Nc3nccc(-c4cccnc4)n3)c2)cc1	> 500
O=[N+]([O-])c1cccc(Nc2nccc(-c3ccccn3)n2)c1	> 500

Next, values leading:

IC50 [µM]	SMILES
> 500	Cc1ccc(N)cc1Nc1nccc(-c2cccnc2)n1
> 500	COc1ccccc1C(=O)Nc1ccc(C)c(Nc2nccc(-c3cccnc3)n2)c1
6	Nc1cccc(Nc2nccc(-c3cccnc3)n2)c1
> 500	FC(F)C(F)(F)Oc1cccc(Nc2nccc(-c3ccc(Cl)cc3)n2)c1
> 500	Cc1ccc(C(=O)Nc2cccc(Nc3nccc(-c4cccnc4)n3)c2)cc1

What follows are molecules tested against Epidermal growth factor receptor (Homo sapiens, UniProt P00533).
Epidermal growth factor receptor, sequence (P00533 whole entry): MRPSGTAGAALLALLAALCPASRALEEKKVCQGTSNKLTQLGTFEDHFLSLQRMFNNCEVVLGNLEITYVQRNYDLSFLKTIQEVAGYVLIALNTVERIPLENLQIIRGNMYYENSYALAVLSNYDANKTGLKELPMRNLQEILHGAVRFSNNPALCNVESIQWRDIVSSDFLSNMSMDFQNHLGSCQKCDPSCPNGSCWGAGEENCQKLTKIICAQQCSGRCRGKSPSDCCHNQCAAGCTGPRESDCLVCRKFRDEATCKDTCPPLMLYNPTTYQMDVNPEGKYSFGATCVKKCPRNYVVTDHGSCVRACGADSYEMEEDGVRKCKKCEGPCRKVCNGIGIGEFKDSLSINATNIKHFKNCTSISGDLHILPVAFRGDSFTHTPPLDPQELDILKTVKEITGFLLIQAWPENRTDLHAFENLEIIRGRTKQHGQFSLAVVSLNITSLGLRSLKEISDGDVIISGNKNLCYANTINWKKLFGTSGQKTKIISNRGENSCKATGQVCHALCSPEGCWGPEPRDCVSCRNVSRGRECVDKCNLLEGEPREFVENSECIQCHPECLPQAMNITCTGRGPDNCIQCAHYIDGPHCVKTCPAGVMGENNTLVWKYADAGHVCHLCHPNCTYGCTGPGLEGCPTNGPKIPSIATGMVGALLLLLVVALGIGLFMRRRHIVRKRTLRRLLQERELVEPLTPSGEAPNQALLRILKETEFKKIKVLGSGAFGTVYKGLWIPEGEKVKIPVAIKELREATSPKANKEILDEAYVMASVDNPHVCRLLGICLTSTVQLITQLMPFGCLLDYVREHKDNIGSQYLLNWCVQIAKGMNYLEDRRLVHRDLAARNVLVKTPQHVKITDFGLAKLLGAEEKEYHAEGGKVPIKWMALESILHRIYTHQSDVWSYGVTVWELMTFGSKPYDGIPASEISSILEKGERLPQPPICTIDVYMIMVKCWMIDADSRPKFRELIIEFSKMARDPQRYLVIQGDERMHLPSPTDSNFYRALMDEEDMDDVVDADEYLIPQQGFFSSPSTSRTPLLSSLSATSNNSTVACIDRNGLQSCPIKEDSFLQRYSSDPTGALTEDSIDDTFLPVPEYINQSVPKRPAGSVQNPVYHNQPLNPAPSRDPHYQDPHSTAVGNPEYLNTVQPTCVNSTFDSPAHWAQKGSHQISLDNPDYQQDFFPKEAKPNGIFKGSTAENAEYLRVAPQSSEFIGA
Description: Inhibition of the epidermal growth factor receptor.

SMILES	IC50 [µM]
c1ccc(Nc2nccc(-c3cccnc3)n2)cc1	100
O=C(Nc1cccc(Nc2nccc(-c3cccnc3)n2)c1)C1CCCCC1	> 100
c1cc(Nc2nccc(-c3cccnc3)n2)cc(OCCn2ccnc2)c1	7.1
N#Cc1ccc(C(=O)Nc2cccc(Nc3nccc(-c4cccnc4)n3)c2)cc1	> 100
O=[N+]([O-])c1cccc(Nc2nccc(-c3ccccn3)n2)c1	> 100

Now from value to molecule:

IC50 [µM]	SMILES
> 100	FC(F)C(F)(F)Oc1cccc(Nc2nccc(-c3ccc(Cl)cc3)n2)c1
> 100	Cc1ccc(C(=O)Nc2cccc(Nc3nccc(-c4cccnc4)n3)c2)cc1

These molecules were tested against Proto-oncogene tyrosine-protein kinase Src (Homo sapiens, UniProt P12931).
Proto-oncogene tyrosine-protein kinase Src, sequence (P12931 2-536 limits assumed): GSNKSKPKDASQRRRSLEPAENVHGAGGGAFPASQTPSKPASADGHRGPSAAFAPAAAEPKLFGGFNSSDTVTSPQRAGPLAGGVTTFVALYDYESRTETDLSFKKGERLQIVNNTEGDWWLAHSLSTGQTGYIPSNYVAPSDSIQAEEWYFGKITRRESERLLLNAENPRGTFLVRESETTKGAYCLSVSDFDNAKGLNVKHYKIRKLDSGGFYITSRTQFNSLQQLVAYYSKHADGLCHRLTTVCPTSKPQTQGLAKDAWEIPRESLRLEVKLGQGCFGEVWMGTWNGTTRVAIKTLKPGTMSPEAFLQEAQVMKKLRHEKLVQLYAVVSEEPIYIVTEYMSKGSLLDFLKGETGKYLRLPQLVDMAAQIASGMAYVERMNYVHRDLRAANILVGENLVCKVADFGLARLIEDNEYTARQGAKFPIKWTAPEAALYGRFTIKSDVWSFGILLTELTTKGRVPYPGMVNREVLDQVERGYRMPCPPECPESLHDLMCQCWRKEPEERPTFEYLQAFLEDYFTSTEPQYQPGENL
Description: Inhibition of c-Src-tyrosine kinase.

SMILES	IC50 [µM]
c1ccc(Nc2nccc(-c3cccnc3)n2)cc1	> 100
O=C(Nc1cccc(Nc2nccc(-c3cccnc3)n2)c1)C1CCCCC1	46
c1cc(Nc2nccc(-c3cccnc3)n2)cc(OCCn2ccnc2)c1	4.9
N#Cc1ccc(C(=O)Nc2cccc(Nc3nccc(-c4cccnc4)n3)c2)cc1	> 100
O=[N+]([O-])c1cccc(Nc2nccc(-c3ccccn3)n2)c1	> 100

The remaining lines, values ahead:

IC50 [µM]	SMILES
14	Nc1cccc(Nc2nccc(-c3cccnc3)n2)c1
126	O=C(O)c1cccc(Nc2nccc(-c3cccnc3)n2)c1
> 100	FC(F)C(F)(F)Oc1cccc(Nc2nccc(-c3ccc(Cl)cc3)n2)c1
> 100	Cc1ccc(C(=O)Nc2cccc(Nc3nccc(-c4cccnc4)n3)c2)cc1
9.8	NCCCNC(=O)c1cccc(Nc2nccc(-c3cccnc3)n2)c1

Each molecule was assayed against Tyrosine-protein kinase ABL1 (Homo sapiens, UniProt P00519).
Tyrosine-protein kinase ABL1, sequence (P00519 whole entry, looked up): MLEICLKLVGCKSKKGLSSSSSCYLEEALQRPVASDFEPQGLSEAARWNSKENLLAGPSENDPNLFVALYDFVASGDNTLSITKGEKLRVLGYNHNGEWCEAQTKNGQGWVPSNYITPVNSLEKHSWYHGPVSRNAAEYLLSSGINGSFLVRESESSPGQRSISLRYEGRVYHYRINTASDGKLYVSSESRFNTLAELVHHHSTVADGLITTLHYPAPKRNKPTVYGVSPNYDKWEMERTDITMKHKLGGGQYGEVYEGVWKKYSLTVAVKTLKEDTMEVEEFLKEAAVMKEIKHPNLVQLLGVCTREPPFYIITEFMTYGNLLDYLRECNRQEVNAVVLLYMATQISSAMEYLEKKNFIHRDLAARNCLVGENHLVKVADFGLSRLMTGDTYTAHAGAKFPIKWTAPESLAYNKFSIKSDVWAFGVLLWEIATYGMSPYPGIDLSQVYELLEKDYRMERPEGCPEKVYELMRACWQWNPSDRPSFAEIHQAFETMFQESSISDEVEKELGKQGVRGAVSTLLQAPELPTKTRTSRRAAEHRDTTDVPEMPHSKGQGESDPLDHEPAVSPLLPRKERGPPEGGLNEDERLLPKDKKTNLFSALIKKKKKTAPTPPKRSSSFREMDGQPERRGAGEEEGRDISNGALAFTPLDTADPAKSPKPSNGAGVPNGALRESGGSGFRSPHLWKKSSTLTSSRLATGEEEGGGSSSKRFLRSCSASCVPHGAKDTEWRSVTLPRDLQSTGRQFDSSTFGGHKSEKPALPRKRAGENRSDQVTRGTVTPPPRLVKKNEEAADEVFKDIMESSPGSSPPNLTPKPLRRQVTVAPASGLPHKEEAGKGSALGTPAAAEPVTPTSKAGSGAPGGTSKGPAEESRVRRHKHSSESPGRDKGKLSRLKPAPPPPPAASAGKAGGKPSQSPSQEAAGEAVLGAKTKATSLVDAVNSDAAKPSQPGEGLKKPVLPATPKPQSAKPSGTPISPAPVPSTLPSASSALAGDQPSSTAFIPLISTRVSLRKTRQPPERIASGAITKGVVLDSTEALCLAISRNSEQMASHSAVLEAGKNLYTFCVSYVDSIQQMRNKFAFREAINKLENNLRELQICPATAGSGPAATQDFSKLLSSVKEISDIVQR
Description: Inhibition of v-Abl tyrosine kinase.

SMILES	IC50 [µM]
Cc1ccc(NC(=O)c2ccc3ccccc3c2)cc1Nc1nccc(-c2cccnc2)n1	0.2
Cc1ccc(NC(=O)c2ccccc2)cc1Nc1nccc(-c2cccnc2)n1	0.4
Cc1ccc(NC(=O)c2ccc(Cl)cc2)cc1Nc1nccc(-c2cccnc2)n1	0.8
O=C(Nc1cccc(Nc2nccc(-c3cccnc3)n2)c1)c1ccccc1	0.4
CC(=O)Nc1ccc(C)c(Nc2nccc(-c3cccnc3)n2)c1	5.8
c1ccc(Nc2nccc(-c3cccnc3)n2)cc1	1.8
O=C(Nc1cccc(Nc2nccc(-c3cccnc3)n2)c1)C1CCCCC1	0.45
c1cc(Nc2nccc(-c3cccnc3)n2)cc(OCCn2ccnc2)c1	1
N#Cc1ccc(C(=O)Nc2cccc(Nc3nccc(-c4cccnc4)n3)c2)cc1	1.3
O=[N+]([O-])c1cccc(Nc2nccc(-c3ccccn3)n2)c1	1.2

Continued, values first:

IC50 [µM]	SMILES
1.5	Cc1ccc(N)cc1Nc1nccc(-c2cccnc2)n1
0.8	COc1ccccc1C(=O)Nc1ccc(C)c(Nc2nccc(-c3cccnc3)n2)c1
0.7	Nc1cccc(Nc2nccc(-c3cccnc3)n2)c1
8	O=C(O)c1cccc(Nc2nccc(-c3cccnc3)n2)c1
> 50	FC(F)C(F)(F)Oc1cccc(Nc2nccc(-c3ccc(Cl)cc3)n2)c1
1	Cc1ccc(C(=O)Nc2cccc(Nc3nccc(-c4cccnc4)n3)c2)cc1
0.4	NCCCNC(=O)c1cccc(Nc2nccc(-c3cccnc3)n2)c1

Reference: ChEMBL document CHEMBL1130562, “Potent and selective inhibitors of the Abl-kinase: phenylamino-pyrimidine (PAP) derivatives” (Bioorg Med Chem Lett, 1997)
